Each structure is given as a SMILES string. Bounds are passed on as bounds.

The test system of the test is HIV-1. Description: HOS HIV-1 infectivity assay. Type of test: cell-based. The conditions noted are these: Human immunodeficiency virus 1, BAL / IIIB, HOS cells expressing hCXCR4/hCCR5/hCD4/pHIV-LTR-luciferase, virus strain (Ba-L or IIIB) not given, read-out: Activity Level. As to the method: Compounds were profiled against two HIV-1 viruses, the M-tropic (CCR5 utilizing) Ba-L strain and the T-tropic (CXCR4 utilizing) IIIB strain. Both viruses were propagated in human peripheral blood lymphocytes. Compounds were tested for there ability to block infection of the HOS cell line (expressing hCXCR4/hCCR5/hCD4/pHIV-LTR-luciferase) by either HIV-1 Ba-L or HIV-1 IIIB. Compound cytotoxicity was also examined in the absence of virus addition.
HOS cells (expressing hCXCR4/hCCR5/hCD4/pHIV-LTR-luciferase) were harvested and diluted in Dulbeccos modified Eagles media supplemented with 2% FCS and non-essential amino acid to a concentration of 60,000 cells/ml. The cells were plated into 96-well plates (100 ul per well) and the plates were placed in a tissue culture incubator (37° C.; 5% CO2/95% air) for a period of 24h.
Subsequently, 50 ul of the desired drug solution (4 times the final concentration) was added to each well and the plates were returned to the tissue culture incubator (37° C.; 5% CO2/95% air) for 1h. Following this incubation 50 ul of diluted virus was added to each well (approximately 2 million RLU per well of virus). The plates were returned to the tissue culture incubator (37° C.; 5% CO2/95% air) and were incubated for a further 96h.
Following this incubation the endpoint for the virally infected cultures was quantified following addition of Steady-Glo Luciferase assay system reagent (Promega, Madison, Wis.). Cell viability or non-infected cultures was measured using a CellTiter-Glo luminescent cell viability assay system (Promega, Madison, Wis.). All luminescent readouts are performed on a Topcount luminescence detector (Packard, Meridien, Conn.).
On to `CN(C)Cc1c(CN(C)[C@H]2CCCc3cccnc32)nc2cccc(N3CCN(C)CC3)n12` [Example 10, (8S)—N-{[3-[(Dimethylamino)methyl]-5-(4-methyl-1-piperazinyl)imidazo[1,2-a]pyridin-2-yl]methyl}-N-methyl-5,6,7,8-tetrahydro-8-quinolinamine], for which the IC50 was under 100 nM.

Consider `CCN(CC)Cc1c(CN(C)[C@H]2CCCc3cccnc32)nc2cccc(N3CCN(C)CC3)n12` [Example 11, (8S)—N-{[3-[(Diethylamino)methyl]-5-(4-methyl-1-piperazinyl)imidazo[1,2-a]pyridin-2-yl]methyl}-N-methyl-5,6,7,8-tetrahydro-8-quinolinamine], for which the IC50 was under 100 nM.

As for `CN1CCN(c2cccc3nc(CN(C)[C@H]4CCCc5cccnc54)c(CN4CCCC4)n23)CC1` [Example 12, (8S)—N-Methyl-N-{[5-(4-methyl-1-piperazinyl)-3-(1-pyrrolidinylmethyl)imidazo[1,2-a]pyridin-2-yl]methyl}-5,6,7,8-tetrahydro-8-quinolinamine], the IC50 is under 100 nM.

Turning to `CN1CCN(c2cccc3nc(CN(C)[C@H]4CCCc5cccnc54)c(CN(CCO)CCO)n23)CC1` [Example 13, 2,2′-({[5-(4-Methyl-1-piperazinyl)-2-({methyl[(8S)-5,6,7,8-tetrahydro-8-quinolinyl]amino}methyl)imidazo[1,2-a]pyridin-3-yl]methyl}imino)diethanol], the IC50 was under 100 nM.

Regarding `CCN(CCO)Cc1c(CN(C)[C@H]2CCCc3cccnc32)nc2cccc(N3CCN(C)CC3)n12` [Example 14, 2-(Ethyl{[5-(4-methyl-1-piperazinyl)-2-({methyl[(8S)-5,6,7,8-tetrahydro-8-quinolinyl]amino}methyl)imidazo[1,2-a]pyridin-3-yl]methyl}amino)ethanol], the IC50 is under 100 nM.

Take `CN1CCN(c2cccc3nc(CN(C)[C@H]4CCCc5cccnc54)c(CN4CCC(O)C4)n23)CC1` (stereo partly drawn) [Example 15, 1-{[5-(4-Methyl-1-piperazinyl)-2-({methyl[(8S)-5,6,7,8-tetrahydro-8-quinolinyl]amino}methyl)imidazo[1,2-a]pyridin-3-yl]methyl}-3-pyrrolidinol]: the IC50 was under 100 nM.

Regarding `CN1CCN(c2cccc3nc(CN(C)[C@H]4CCCc5cccnc54)c(CN4CCOCC4)n23)CC1` [Example 16, (8S)—N-Methyl-N-{[5-(4-methyl-1-piperazinyl)-3-(4-morpholinylmethyl)imidazo[1,2-a]pyridin-2-yl]methyl}-5,6,7,8-tetrahydro-8-quinolinamine], the IC50 is under 100 nM.

Regarding `CNCc1c(CN(C)[C@H]2CCCc3cccnc32)nc2cccc(N3CCN(C)CC3)n12` [Example 19, (8S)—N-Methyl-N-{[3-[(methylamino)methyl]-5-(4-methyl-1-piperazinyl)imidazo[1,2-a]pyridin-2-yl]methyl}-5,6,7,8-tetrahydro-8-quinolinamine], the IC50 is under 100 nM.

On to `CCNCc1c(CN(C)[C@H]2CCCc3cccnc32)nc2cccc(N3CCN(C)CC3)n12` [Example 20, (8S)—N-{[3-[(Ethylamino)methyl]-5-(4-methyl-1-piperazinyl)imidazo[1,2-a]pyridin-2-yl]methyl}-N-methyl-5,6,7,8-tetrahydro-8-quinolinamine], for which the IC50 was under 100 nM.

On to `CN1CCN(Cc2c(CN(C)[C@H]3CCCc4cccnc43)nc3cccc(N4CCN(C)CC4)n23)CC1` [Example 21, (8S)—N-Methyl-N-({5-(4-methyl-1-piperazinyl)-3-[(4-methyl-1-piperazinyl)methyl]imidazo[1,2-a]pyridin-2-yl}methyl)-5,6,7,8-tetrahydro-8-quinolinamine], for which the IC50 was under 100 nM.

For the molecule `CN1CCN(c2cccc3nc(CN(C)[C@H]4CCCc5cccnc54)c(CN4CCCCC4)n23)CC1` [Example 22, (8S)—N-Methyl-N-{[5-(4-methyl-1-piperazinyl)-3-(1-piperidinylmethyl)imidazo[1,2-a]pyridin-2-yl]methyl}-5,6,7,8-tetrahydro-8-quinolinamine], the IC50 was under 100 nM.

Regarding `CC(C)NCc1c(CN(C)[C@H]2CCCc3cccnc32)nc2cccc(N3CCN(C)CC3)n12` [Example 23, (8S)—N-Methyl-N-{[3-{[(1-methylethyl)amino]methyl}-5-(4-methyl-1-piperazinyl)imidazo[1,2-a]pyridin-2-yl]methyl}-5,6,7,8-tetrahydro-8-quinolinamine], the IC50 was under 100 nM.

With `CN1CCN(c2cccc3nc(CN(C)[C@H]4CCCc5cccnc54)c(CN)n23)CC1` [Example 24, (8S)—N-{[3-(Aminomethyl)-5-(4-methyl-1-piperazinyl)imidazo[1,2-a]pyridin-2-yl]methyl}-N-methyl-5,6,7,8-tetrahydro-8-quinolinamine], the IC50 is under 100 nM.

Take `CC(=O)NCc1c(CN(C)[C@H]2CCCc3cccnc32)nc2cccc(N3CCN(C)CC3)n12` [Example 25, N-{[5-(4-Methyl-1-piperazinyl)-2-({methyl[(8S)-5,6,7,8-tetrahydro-8-quinolinyl]amino}methyl)imidazo[1,2-a]pyridin-3-yl]methyl}acetamide]: the IC50 is under 100 nM.

For `CCC(=O)NCc1c(CN(C)[C@H]2CCCc3cccnc32)nc2cccc(N3CCN(C)CC3)n12` [Example 26, N-{[5-(4-Methyl-1-piperazinyl)-2-({methyl[(8S)-5,6,7,8-tetrahydro-8-quinolinyl]amino}methyl)imidazo[1,2-a]pyridin-3-yl]methyl}propanamide], the IC50 is under 100 nM.

As for `CC(C)C(=O)NCc1c(CN(C)[C@H]2CCCc3cccnc32)nc2cccc(N3CCN(C)CC3)n12` [Example 27, 2-Methyl-N-{[5-(4-methyl-1-piperazinyl)-2-({methyl[(8S)-5,6,7,8-tetrahydro-8-quinolinyl]amino}methyl)imidazo[1,2-a]pyridine-3-yl]methyl}propanamide], the IC50 was under 100 nM.

As for `CCC(C)C(=O)NCc1c(CN(C)[C@H]2CCCc3cccnc32)nc2cccc(N3CCN(C)CC3)n12` (stereo partly drawn) [Example 28, 2-Methyl-N-{[5-(4-methyl-1-piperazinyl)-2-({methyl[(8S)-5,6,7,8-tetrahydro-8-quinolinyl]amino}methyl)imidazo[1,2-a]pyridin-3-yl]methyl}butanamide], the IC50 is under 100 nM.

Regarding `CN1CCN(c2cccc3nc(CN(C)[C@H]4CCCc5cccnc54)c(CNC(=O)c4ccccc4)n23)CC1` [Example 29, 2 N-{[5-(4-Methyl-1-piperazinyl)-2-({methyl[(8S)-5,6,7,8-tetrahydro-8-quinolinyl]amino}methyl)imidazo[1,2-a]pyridin-3-yl]methyl}benzamide], the IC50 was under 100 nM.

Take `CN1CCN(c2cccc3nc(CN(C)[C@H]4CCCc5cccnc54)c(CNC(=O)Cc4ccccc4)n23)CC1` [Example 30, N-{[5-(4-Methyl-1-piperazinyl)-2-({methyl[(8S)-5,6,7,8-tetrahydro-8-quinolinyl]amino}methyl)imidazo[1,2-a]pyridin-3-yl]methyl}-2-phenylacetamide]: the IC50 was under 100 nM.

Consider `COC(=O)NCc1c(CN(C)[C@H]2CCCc3cccnc32)nc2cccc(N3CCN(C)CC3)n12` [Example 31, Methyl {[5-(4-methyl-1-piperazinyl)-2-({methyl[(8S)-5,6,7,8-tetrahydro-8-quinolinyl]amino}methyl)imidazo[1,2-a]pyridin-3-yl]methyl}carbamate], for which the IC50 was under 100 nM.

Values taken from patent publication US20080234318A1, “Chemical Compounds” (priority 2005, published 2008).
